Data on ten compounds can be found in ChEMBL document CHEMBL1151352, “Antifeedant Diterpenes For the Gypsy Moth Larvae From Kalmia latifolia: Isolation and Characterization of Ten Grayanoids” (1980).

What all share (format): functional
The subject of assay [1] is Lymantria dispar. Description: Antifeedant activity in gypsy moth ten third-instar larvae at 20 ug/ml relative to control.
For assay [2], the system named is Lymantria dispar. Description: Antifeedant activity in gypsy moth ten third-instar larvae at 15 ug/ml relative to control.
Assay [3] deals with Lymantria dispar. Description: Antifeedant activity in gypsy moth ten third-instar larvae at 32.5 ug/ml relative to control.
Assay [4] concerns Lymantria dispar. Description: Antifeedant activity in gypsy moth ten third-instar larvae at 27 ug/ml relative to control.
In assay [5] the test system is Lymantria dispar. Description: Antifeedant activity in gypsy moth ten third-instar larvae at 17.5 ug/ml relative to control.
Assay [6] relates to Lymantria dispar. Description: Antifeedant activity in gypsy moth ten third-instar larvae at 60 ug/ml relative to control.
Assay [7] relates to Lymantria dispar. Description: Antifeedant activity in gypsy moth ten third-instar larvae at 45 ug/ml relative to control.
The subject of assay [8] is Lymantria dispar. Description: Antifeedant activity in gypsy moth ten third-instar larvae at 2.5 ug/ml relative to control.
Assay [9] relates to Lymantria dispar. In words: Antifeedant activity in gypsy moth ten third-instar larvae at 30 ug/ml relative to control.
Assay [10] deals with Lymantria dispar. In words: Antifeedant activity in gypsy moth ten third-instar larvae at 7.5 ug/ml relative to control.

In assay [1], `C=C1[C@@H]2CC[C@@H]3C[C@@]2(C[C@@H](O)[C@@]2(O)[C@H]1C[C@H](O)C2(C)C)C[C@@]3(C)O` had an Activity of 121%.

Compound `C=C1[C@@H]2CC[C@@H]3[C@@H](O)[C@@]2(C[C@@H](O)[C@@]2(O)[C@H]1C[C@H](O)C2(C)C)C[C@@]3(C)O` returned an Activity in assay [2] of 65%.

The compound `CC1(C)[C@@H](O)C[C@H]2[C@](C)(O)[C@@H]3CC[C@@H]4[C@@H](O)[C@@]3(C[C@@H](O)[C@@]21O)C[C@@]4(C)O` [GRAYANOTOXIN III] registered an Activity in assay [3] of 49%.

For `CC(=O)O[C@@H]1[C@@H](O)[C@]23C[C@@](C)(O)[C@H](CC[C@H]2[C@@](C)(O)[C@@H]2C[C@H](O)C(C)(C)[C@@]12O)[C@H]3O` [KALMITOXIN III], in assay [4], the Activity turned out to be 99%.

In turn, `C=C1[C@@H]2CC[C@@H]3[C@@H](O)[C@]2(C[C@@]3(C)O)[C@H](O)[C@@H](O)[C@@]2(O)[C@H]1C[C@H](O)C2(C)C` [KALMITOXIN II] returned an Activity in assay [5] of 86%.

The compound `CC1(C)[C@@H](O)C[C@H]2[C@](C)(O)[C@@H]3CC[C@@H]4[C@@H](O)[C@]3(C[C@@]4(C)O)[C@H](O)[C@@H](O)[C@@]21O` [KALMITOXIN I] displayed an Activity in assay [6] of 23%.

`CC(=O)O[C@@H]1[C@@H](O)[C@@]2(O)[C@@H]([C@@H](O)[C@H](O)C2(C)C)[C@](C)(O)[C@@H]2CC[C@@H]3[C@@H](OC(C)=O)[C@]12C[C@@]3(C)O` [KALMITOXIN VI] registered an Activity in [7] of 106%.

In turn, `CC(=O)O[C@@H]1[C@@H](OC(C)=O)[C@@]2(O)[C@@H]([C@@H]3O[C@@H]3C2(C)C)[C@](C)(O)[C@@H]2CC[C@@H]3[C@@H](O)[C@]12C[C@@]3(C)O` [KALMITOXIN V] came in with an Activity in assay [8] of 92%.

As for `CC(=O)O[C@@H]1[C@@H](O)[C@]23C[C@@](C)(O)[C@H](CC[C@H]2[C@@](C)(O)[C@@H]2[C@@H]4O[C@@H]4C(C)(C)[C@@]12O)[C@H]3O` [KALMOTOXIN IV], the Activity in assay [9] came out at 47%.

The compound `CC(=O)O[C@@H]1[C@@H](O)[C@@]23C[C@@H](CC[C@H]2[C@@](C)(O)[C@@H]2[C@@H]4O[C@@H]4C(C)(C)[C@@]12O)[C@](C)(O)C3` [LYONIOL A] gave an Activity in assay [10] of 95%.
